Measured values taken from ChEMBL document CHEMBL6071155, “Discovery of selective Orai channel blockers bearing an indazole or a pyrazole scaffold” (Eur J Med Chem, 2024).
Activity calls are given as the source filed them. The calls are words filed in the database; no cut-off is given here.

Experiments:
Jurkat T = assay: Inhibition of NFAT (unknown origin) activation transfected in human Jurkat T cells expressing firefly luciferase gene at 10 uM preincubated with compound for 30 mins followed by PMA/ionomysin addition and measured after 18 hrs by luminometer relative to control; type: cell-based; conditions: time 18.5 hrs
[1] = tested on: Calcium release-activated calcium channel protein 1 (Homo sapiens), Q96D31 [G98S]; assay: Reversible inhibition of myc-tagged human Orai-1 G98S mutant expressed in HEK293 cells assessed as reduction in inward current at 10 uM measured upto 6 mins by patch clamp electrophysiology; type: cell-based
Calcium release-activated calcium channel protein 1 (Homo sapiens), Q96D31 [G98S], sequence (Q96D31 whole entry G98S): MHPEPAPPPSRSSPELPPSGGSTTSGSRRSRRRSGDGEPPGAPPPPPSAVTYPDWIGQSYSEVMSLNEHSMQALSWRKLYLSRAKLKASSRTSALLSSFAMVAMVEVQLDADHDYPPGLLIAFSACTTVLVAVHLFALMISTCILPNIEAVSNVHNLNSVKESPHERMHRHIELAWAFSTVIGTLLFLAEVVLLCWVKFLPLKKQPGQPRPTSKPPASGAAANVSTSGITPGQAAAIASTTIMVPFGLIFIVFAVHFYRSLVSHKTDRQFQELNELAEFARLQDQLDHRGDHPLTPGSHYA

[2] = target: Transient receptor potential cation channel subfamily M member 7 (Homo sapiens) (UniProt Q96QT4); assay: Activation of TRPM7 in human Jurkat T cells at 30 uM by patch clamp electrophysiology; type: cell-based
Transient receptor potential cation channel subfamily M member 7 (Homo sapiens), sequence (Q96QT4 whole entry): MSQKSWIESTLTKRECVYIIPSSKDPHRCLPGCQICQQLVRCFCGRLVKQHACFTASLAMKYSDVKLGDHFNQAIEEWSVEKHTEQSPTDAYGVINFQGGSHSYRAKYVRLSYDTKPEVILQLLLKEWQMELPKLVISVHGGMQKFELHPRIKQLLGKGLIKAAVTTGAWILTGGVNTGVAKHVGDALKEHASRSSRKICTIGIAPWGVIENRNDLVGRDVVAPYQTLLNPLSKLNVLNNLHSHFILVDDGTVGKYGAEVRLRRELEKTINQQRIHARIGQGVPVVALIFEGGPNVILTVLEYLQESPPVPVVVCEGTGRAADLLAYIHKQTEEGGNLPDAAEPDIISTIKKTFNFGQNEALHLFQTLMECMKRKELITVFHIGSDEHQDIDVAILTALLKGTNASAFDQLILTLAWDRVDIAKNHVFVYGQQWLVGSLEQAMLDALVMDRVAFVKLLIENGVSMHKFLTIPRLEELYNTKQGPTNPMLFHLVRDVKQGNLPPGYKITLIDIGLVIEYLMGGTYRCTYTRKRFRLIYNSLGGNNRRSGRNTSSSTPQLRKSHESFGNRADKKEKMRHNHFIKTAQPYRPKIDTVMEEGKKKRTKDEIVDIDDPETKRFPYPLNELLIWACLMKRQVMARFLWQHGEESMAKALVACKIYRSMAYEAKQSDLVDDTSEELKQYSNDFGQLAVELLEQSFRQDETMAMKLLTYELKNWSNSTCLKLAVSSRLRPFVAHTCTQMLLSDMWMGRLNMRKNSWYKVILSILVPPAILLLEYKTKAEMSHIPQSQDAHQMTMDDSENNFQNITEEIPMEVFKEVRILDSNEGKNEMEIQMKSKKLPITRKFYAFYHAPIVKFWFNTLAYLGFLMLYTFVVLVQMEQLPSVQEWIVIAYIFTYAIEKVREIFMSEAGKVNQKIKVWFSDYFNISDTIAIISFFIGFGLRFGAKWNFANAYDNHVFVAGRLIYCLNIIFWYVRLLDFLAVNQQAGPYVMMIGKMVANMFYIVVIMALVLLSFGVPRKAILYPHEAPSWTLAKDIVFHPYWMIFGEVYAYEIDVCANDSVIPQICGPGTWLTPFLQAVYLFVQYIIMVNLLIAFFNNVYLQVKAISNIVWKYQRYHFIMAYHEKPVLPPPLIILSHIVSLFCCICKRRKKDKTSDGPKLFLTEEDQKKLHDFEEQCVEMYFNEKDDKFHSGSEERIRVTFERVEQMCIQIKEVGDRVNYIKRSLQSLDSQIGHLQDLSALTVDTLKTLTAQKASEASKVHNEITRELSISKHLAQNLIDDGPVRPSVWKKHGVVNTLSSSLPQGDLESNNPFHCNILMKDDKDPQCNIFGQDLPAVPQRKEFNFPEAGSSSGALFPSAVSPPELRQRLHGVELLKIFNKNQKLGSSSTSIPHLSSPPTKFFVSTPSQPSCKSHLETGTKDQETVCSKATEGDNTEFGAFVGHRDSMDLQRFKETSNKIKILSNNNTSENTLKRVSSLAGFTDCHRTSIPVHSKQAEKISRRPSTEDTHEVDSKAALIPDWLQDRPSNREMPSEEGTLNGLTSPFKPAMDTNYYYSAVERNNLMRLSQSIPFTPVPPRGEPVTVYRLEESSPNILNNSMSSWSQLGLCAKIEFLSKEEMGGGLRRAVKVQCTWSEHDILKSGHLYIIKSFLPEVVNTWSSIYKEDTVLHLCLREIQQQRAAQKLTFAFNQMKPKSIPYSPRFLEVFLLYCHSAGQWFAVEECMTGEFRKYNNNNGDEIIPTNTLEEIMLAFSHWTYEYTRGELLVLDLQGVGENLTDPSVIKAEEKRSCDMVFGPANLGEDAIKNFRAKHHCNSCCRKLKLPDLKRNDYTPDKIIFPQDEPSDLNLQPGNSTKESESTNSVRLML

[3] = target: Calcium release-activated calcium channel protein 1 (Homo sapiens, UniProt Q96D31, G98S); assay: (§1) Inhibition of myc-tagged human orai-1 G98S mutant expressed in HEK293 cells assessed as decrease in inward current by patch clamp electrophysiology technique; type: cell-based
Calcium release-activated calcium channel protein 1, sequence (Q96D31 whole entry G98S): as the sequence (Q96D31 whole entry G98S) above

[4] = tested on: Calcium release-activated calcium channel protein 1 (Homo sapiens), Q96D31 [G98S]; assay: as §1; type: cell-based; conditions: dose 1-30 µM
[5] = target: Transient receptor potential cation channel subfamily M member 4 (Homo sapiens) (UniProt Q8TD43); assay: Activation of GFP-tagged human TRPM4 transfected in HEK293 cells at 30 uM by patch clamp electrophysiology; type: cell-based
Transient receptor potential cation channel subfamily M member 4 (Homo sapiens), sequence (Q8TD43 whole entry): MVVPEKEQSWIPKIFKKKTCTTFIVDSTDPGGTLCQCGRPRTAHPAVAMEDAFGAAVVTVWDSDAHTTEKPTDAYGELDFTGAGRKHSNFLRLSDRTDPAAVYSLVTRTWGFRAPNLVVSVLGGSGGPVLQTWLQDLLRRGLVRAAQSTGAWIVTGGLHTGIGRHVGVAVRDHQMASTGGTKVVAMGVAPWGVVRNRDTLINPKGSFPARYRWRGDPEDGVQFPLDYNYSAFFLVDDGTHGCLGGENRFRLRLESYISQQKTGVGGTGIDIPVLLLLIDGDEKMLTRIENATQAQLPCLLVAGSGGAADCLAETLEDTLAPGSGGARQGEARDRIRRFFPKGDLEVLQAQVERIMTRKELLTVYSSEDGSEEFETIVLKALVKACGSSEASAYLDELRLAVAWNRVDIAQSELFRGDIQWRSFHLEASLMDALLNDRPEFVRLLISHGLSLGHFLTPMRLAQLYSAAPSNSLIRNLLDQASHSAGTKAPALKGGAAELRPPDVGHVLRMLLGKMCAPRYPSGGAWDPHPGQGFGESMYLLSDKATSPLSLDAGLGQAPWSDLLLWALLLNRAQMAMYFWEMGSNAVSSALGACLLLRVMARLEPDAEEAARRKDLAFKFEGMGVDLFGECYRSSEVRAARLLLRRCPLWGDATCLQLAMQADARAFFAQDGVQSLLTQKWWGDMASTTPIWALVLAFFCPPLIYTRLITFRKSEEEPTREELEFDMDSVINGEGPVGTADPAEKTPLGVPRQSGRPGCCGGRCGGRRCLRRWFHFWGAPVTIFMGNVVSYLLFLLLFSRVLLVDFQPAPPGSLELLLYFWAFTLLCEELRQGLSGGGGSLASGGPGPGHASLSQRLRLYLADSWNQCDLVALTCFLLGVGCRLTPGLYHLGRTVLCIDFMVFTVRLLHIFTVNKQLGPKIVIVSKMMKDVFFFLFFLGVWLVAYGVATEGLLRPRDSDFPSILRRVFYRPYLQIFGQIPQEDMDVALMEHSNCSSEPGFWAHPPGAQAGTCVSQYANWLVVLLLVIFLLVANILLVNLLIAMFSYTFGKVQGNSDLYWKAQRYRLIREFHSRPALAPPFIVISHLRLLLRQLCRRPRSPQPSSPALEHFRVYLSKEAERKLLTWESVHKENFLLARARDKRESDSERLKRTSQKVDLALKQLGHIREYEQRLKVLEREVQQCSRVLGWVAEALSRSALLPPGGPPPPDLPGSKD

Jurkat [6] = assay: Cytotoxicity against human Jurkat T cells assessed as decrease in cell viability at 30 uM incubated for 48 hrs by trypan blue exclusion method; type: toxicity, cell-based
[7] = Inhibition of Store-operated calcium entry (SOCE) in phytohemagglutinin-stimulated human Jurkat T cells at 30 uM in presence of Ca2+ by fura-2 dye based calcium imaging analysis relative to control; type: functional
[8] = tested on: Calcium release-activated calcium channel protein 1 (Homo sapiens), Q96D31 [G98S]; assay: Inhibition of myc-tagged human orai-1 G98S mutant expressed in HEK293 cells assessed as decrease in inward current at 30 uM by patch clamp electrophysiology technique relative to control; type: cell-based
[9] = (§2) Inhibition of Store-operated calcium entry (SOCE) in phytohemagglutinin-stimulated human Jurkat T cells in presence of Ca2+ by fura-2 dye based calcium imaging analysis; type: functional, cell-based
Jurkat [10] = assay: as §2; type: functional, cell-based
[11] = target: Transient receptor potential cation channel subfamily M member 4 (Homo sapiens) (UniProt Q8TD43); assay: Activation of GFP-tagged human TRPM4 transfected in HEK293 cells at 10 uM by patch clamp electrophysiology; type: cell-based; conditions: filed as opener
Jurkat [12] = assay: Cytotoxicity against human Jurkat T cells assessed as cell killing at 30 uM incubated for 48 hrs by trypan blue exclusion method relative to control; type: toxicity, cell-based

Cc1cnccc1NC(=O)c1nn(CC2CCC2)c2c1CCCC2
inhibition (Jurkat T): 92.6%

O=C(Nc1ccncc1F)c1nn(CC2CCC2)c2c1CCCC2
inhibition (Jurkat T): 92.8%

O=C(Nc1ccncc1F)c1nn(CC2CC2)c2c1CCCC2
inhibition (Jurkat T): 87.3%

O=C(Nc1ccncc1F)c1nn(CC2CC2)c2ncccc12
inhibition [1]: Active | inhibition (Jurkat T): 64.6%

Cc1cnccc1NC(=O)c1nn(CC2CC2)c2c1CCC2
inhibition (Jurkat T): 55.5%

Cc1cnccc1NC(=O)c1ccn(CC2CC2)n1
inhibition (Jurkat T): 61.3%

O=C(Nc1ccncc1F)c1nn(CC2CC2)c2ccccc12
Activity [2]: inactive | inhibition [1]: Active | IC50 [3]: 4.9 µM | inhibition [4]: Dose-Dependent Effect | Activity [5]: inactive | Activity (Jurkat [6]): Non-Toxic | inhibition at 30 µM [7]: 100% | inhibition [8]: 100% | IC50 [9]: 10 µM | inhibition (Jurkat [10]): Dose-Dependent Effect | inhibition (Jurkat T): 97.9%

O=C(Nc1ccncc1F)c1nn(CC2CC2)c2cc(F)ccc12
inhibition (Jurkat T): 96.1%

Cc1cnccc1NC(=O)c1nn(CC2CCC2)c2ccccc12
inhibition (Jurkat T): 92.4%

O=C(Nc1ccncc1F)c1ccn(CC2CC2)n1
inhibition (Jurkat T): 60.2%

O=C(Nc1ccncc1F)c1nn(CC2CCCC2)c2ccccc12
inhibition (Jurkat T): 95.4%

O=C(Nc1ccncc1F)c1nn(CC2CC2)c2ccc(F)cc12
inhibition (Jurkat T): 77.3%

O=C(Nc1ccncc1F)c1nn(CC2CCCCC2)c2ccccc12
inhibition (Jurkat T): 88.4%

O=C(Nc1ccncc1F)c1nn(CC2CC2)c2cc(Cl)ccc12
inhibition (Jurkat T): 51.9%

O=C(Nc1ccncc1F)c1nn(C(=O)C2CC2)c2ccccc12
inhibition (Jurkat T): 76.8%

Cc1cnccc1NC(=O)c1nn(CC2CC2)c2ccccc12
inhibition (Jurkat T): 86.9%

O=C(Nc1ccncc1F)c1nn(CC2CCC2)c2ccccc12
inhibition (Jurkat T): 80.5%

Cc1ccc2c(c1)c(C(=O)Nc1ccncc1F)nn2CC1CC1
inhibition (Jurkat T): 81.9%

O=C(Nc1c(F)cccc1F)c1ccn(CC2CC2)n1
inhibition (Jurkat T): inactive

Cc1nnsc1C(=O)Nc1ccc(-n2nc(C(F)(F)F)cc2C(F)(F)F)cc1
Activity [11]: Active | Activity (Jurkat [12]): ~ 80%

O=C(Nc1ccncc1F)c1nn(CC2CC2)c2ccc(Br)cc12
inhibition (Jurkat T): 58.6%

O=C(Nc1ccncc1F)c1nn(CC2CC2)c2c(F)cccc12
inhibition (Jurkat T): 48.5%

O=C(Nc1ccncc1F)c1nn(CC2CC2)c2c1CCC2
inhibition (Jurkat T): 63.6%

O=C(Nc1c(F)cccc1F)c1nn(CC2CC2)c2c1CCCC2
inhibition (Jurkat T): 53.9%

Cc1cnccc1NC(=O)c1nn(CC2CC2)c2c1CCCC2
inhibition (Jurkat T): 88.7%
